The test system of one data set is CAF2-1 C. albican wt. The experiment in a line: MIC determination in Candida strain CAF2-1. The format is cell-based, Candida albicans. The conditions noted are these: Candida albicans. As for the experimental part:
(§1) In Vitro Antifungal Activity. MIC values for various strains were determined in accordance with the standard protocol from the National Committee of Clinical Laboratory Standards but using YEPD liquid medium instead of RPMI-1640 medium (National Committee of Clinical Laboratory Standards (Reference Method for Broth Dilution Antifungal Susceptibility Testing of Yeast, M27-A2, Approved Standard-Second Edition, Volume 22, Number 15, 1995). AmB was used as a reference. The strains were cultivated overnight in 5 mL YEPD liquid medium at 30 to 37° C. (30° C. for the strain BY4741; 37° C. for the strain DSY1764) with constant shaking. The saturated cultures were diluted to an ODB600 of 0.1 (3×10P^7 cells/mL). Using 24 wells plate, each well was prepared by adding 1% (12 μL) of DMSO solution of the tested polyene macrolide with 1% (12 μL) yeast cells solution and completed with YEPD (1.176 mL). The plates were sealed with Parafilm and then incubated for 18 to 36 hours at 30 to 37° C. (18 hours at 30° C. for the strain BY4741; 36 hours at 37° C. for the strain DSY1764). The optical density was read at 600 nm using 1.5 mL cuvettes. The MIC value was defined as the drug concentration needed to inhibit growth, less than 5% compared to a drug-free culture.
(§2) MIC values of the polyene macrolides 3, 9 and 10 (Diamine-AmB and its ester and diamide derivative, respectively) in various Candida strains including an AmB-resistant strain C. albicans (DSY1764, with the genotype erg3AΔ::hisG/erg3BΔ::hisG erg11Δ::hisG/erg11Δ::hisG-URA3-hisG) were determined.

The subject of the next data set is human erythrocytes. The data set is described as follows: Hemolytic assay (EH50). The format is cell-based. The conditions noted are these: concentration that led to 50% hemolysis of human erythrocytes; one hour at 37° C. As for the experimental part: Hemolytic Assay. The hemotoxicity of the polyene macrolide derivatives of the invention was determined by measuring the toxicity towards human erythrocytes (EH50 value) using an established assay (Kinsky, S. C. et al., Biochem. Biophys. Res. Comm. 1962, 9, 503). Human blood, anticoagulated with citrate or EDTA, was centrifuged (2000×g) at 4° C. for 10 minutes. The pellets were washed three times with PBS buffer (pH 7.2 with 2 g/L glucose) and then diluted to a concentration of 4% (4×10^8 cells/mL). All experiments were done in triplo and the total volume for the hemolysis tubes was 1.4 ml. The solutions were prepared by adding 1% (14 μL) of DMSO solution of the tested compound with […] of PBS buffer and completed with 750 μL of 4% erythrocytes. After one hour incubation at 37° C., the samples were centrifuged (1500×g) at 4° C. for 5 min and the absorbance of the supernatant was measured at 560 nm. The concentration that led to 50% hemolysis (EH50) was intrapolated graphically. The value for the 100% hemolysis was obtained by the treatment with 100 μM of AmB.
The toxicity of AmB (1a) and the polyene macrolides 3, 9 and 10 towards human erythrocytes was examined using the above described hemolysis assay (Table 3).

A further data set in a line: Solubility assay. Format: physicochemical. The conditions noted are these: for solubility: PBS buffer, pH 7.2, aqueous buffer, kinetic from dmso stock, read-out: Solubility in water. Here is the method: Solubility assay. The solubility assay was performed according to Lipinski, C. A. et al Advances Drug Delivery Reviews 2001, 46, 3-26. Typically, a compound of the invention was dissolved in DMSO at a concentration of 10 μg/μl. The so obtained solution was added in […] at 1 min intervals to 2.5 ml PBS buffer solution pH 7.2. These additions correspond to solubility increments of 5 μg/ml to a top value of 65 μg/ml. A total of 14 additions were made and each time increased UV absorbance from light scattering was measured at 600 nm. The precipitation point was calculated from a bilinear curve fit to the Absorbance (y axis) versus μl of DMSO (x axis) plot.
The solubility of the polyene macrolides of the invention in water was tested following the above described protocol. Clearly, all conjugates were more soluble in water then AmB.

The next data set relates to DSY-565 C. glabrata CI. The experiment in a line: MIC determination in Candida strain DSY-565. Format: cell-based. The settings on record: Nakaseomyces glabratus. Here is the method: as §1, §2
[1] abbreviates: DMSO stock added to PBS buffer solution pH 7.2, precipitation point by light scattering at 600 nm.

Converted amounts (≈) assume the structure as drawn.

For `COC(=O)[C@H]1[C@@H]2C[C@@H](O[C@@H]3O[C@H](C)[C@@H](O)[C@H](N(CCCN)CCCN)[C@@H]3O)/C=C/C=C/C=C/C=C/C=C/C=C/C=C/[C@H](C)[C@@H](O)[C@@H](C)[C@H](C)OC(=O)C[C@H](O)C[C@H](O)CC[C@@H](O)[C@H](O)C[C@H](O)C[C@](O)(C[C@@H]1O)O2` [compound 9, N,N-Di-(3-aminopropyl)-AmB Methyl Ester], the MIC (usually the lowest concentration found to suppress growth) was found to be 0.5 µM (≈ 0.526 µg/mL) with CAF2-1 C. albican wt and 0.25 µM (≈ 0.263 µg/mL) with DSY-565 C. glabrata CI. Moreover, in the data set on human erythrocytes, the EH50 came to 50 µM. In “Solubility assay” (setting [1]), the solubility (as a rule, how much of the substance goes into solution per volume) amounted to 22 µg/mL (≈ 20.9 µM).
Take `C[C@@H]1[C@H](O)[C@@H](C)/C=C/C=C/C=C/C=C/C=C/C=C/C=C/[C@H](O[C@@H]2O[C@H](C)[C@@H](O)[C@H](N(CCCN)CCCN)[C@@H]2O)CC2O[C@](O)(C[C@@H](O)C[C@@H](O)[C@H](O)CC[C@@H](O)C[C@@H](O)CC(=O)O[C@H]1C)C[C@H](O)[C@H]2C(=O)NCCN` [compound 10, 16-(N′-(2-Aminoethyl)-carboxamide)-N,N-di-(3-aminopropyl)-AmB]: the MIC with CAF2-1 C. albican wt was 2 µM (≈ 2.16 µg/mL); against DSY-565 C. glabrata CI, 0.5 µM (≈ 0.54 µg/mL). The compound also displayed an EH50 in the data set with human erythrocytes of 30 µM. For the same compound, in the data set “Solubility assay” (DMSO stock added to PBS buffer solution pH 7.2, precipitation point by light scattering at 600 nm, listed as Diamine-Amide 10), the Solubility in water was 40 µg/mL (≈ 37 µM). Also, in “Solubility assay” (setting [1]), the solubility is no more than 40 µg/mL. In the data set “Solubility assay” (relative to AmB), the “solubility in water compared with AmB” value was “four times more soluble”.

The record behind these values is patent US20090186838A1, “Amphotericin Derivatives” (Eidgenössische Technische Hochschule Zürich, priority 2006, published 2009).
